For this assay, the target named is T1, GST-ALK5 (Homo sapiens, UniProt P36897).
T1 sequence (P36897 34-503): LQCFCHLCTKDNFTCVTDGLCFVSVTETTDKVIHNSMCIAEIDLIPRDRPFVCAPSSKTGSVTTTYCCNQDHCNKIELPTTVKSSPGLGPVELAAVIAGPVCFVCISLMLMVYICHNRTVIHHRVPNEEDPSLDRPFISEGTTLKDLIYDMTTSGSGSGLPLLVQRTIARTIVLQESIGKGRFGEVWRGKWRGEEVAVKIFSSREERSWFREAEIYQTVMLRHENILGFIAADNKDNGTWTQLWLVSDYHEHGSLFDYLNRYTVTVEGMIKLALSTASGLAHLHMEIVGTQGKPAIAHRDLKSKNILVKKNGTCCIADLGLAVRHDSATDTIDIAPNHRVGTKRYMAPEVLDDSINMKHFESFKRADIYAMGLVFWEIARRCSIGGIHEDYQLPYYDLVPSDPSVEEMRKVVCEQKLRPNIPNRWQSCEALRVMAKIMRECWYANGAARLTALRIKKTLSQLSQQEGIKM
The assay can be described thus: In-vitro (enzyme) kinase assay, 384-well flashplate, GST-ALK5 with GST-SMAD2 and 33P-ATP (Example 16). It is filed as biochemical. Conditions: 31.2 nM GST-ALK5, 439 nM GST-SMAD2, 3 mM ATP, 30° C., 45 min; IC50 classes; read-out: TβR activity (Example 16). Here is the method: In-vitro (Enzyme) Assay for Determination of the Efficacy of Inhibitors of the Inhibition of TGF-Beta-mediated Effects
The kinase assay was carried out as 384-well flashplate assay. 31.2 nM of GST-ALK5, 439 nM of GST-SMAD2 and 3 mM of ATP (with 0.3 μCi of ^33P-ATP/well) were incubated in a total volume of 35 μl (20 mM of HEPES, 10 mM of MgCl2, 5 mM of MnCl2, 1 mM of DTT, 0.1% of BSA, pH 7.4) without or with test substance (5-10 concentrations) at 30° C. for 45 min. The reaction was stopped using 25 μl of 200 mM EDTA solution, filtered with suction at room temperature after 30 min, and the wells were washed with 3 times 100 μl of 0.9% NaCl solution. Radioactivity was measured in the TopCount. The IC50 values were calculated using RS1.
On to `Fc1ccc(Cl)cc1-c1cc(-c2cncc(-c3cnn(C4CCNCC4)c3)c2)ccn1` [Compound 18, 2′-(5-Chloro-2-fluoro-phenyl)-5-(1-piperidin-4-yl-1H-pyrazol-4-yl)-[3,4′]bipyridinyl], for which the IC50 was less than 1 µM.

Turning to `CCOCc1cnc(C)nc1Nc1cncc(-c2ccnc(-c3ccccc3F)c2)c1` [Compound 45, (5-Ethoxymethyl-2-methyl-pyrimidin-4-yl)-[2′-(2-fluoro-phenyl)-[3,4′]bipyridinyl-5-yl]-amine], the IC50 is 1 to 10 µM.

As to `CN(C)CCCn1cc(-c2cncc(-c3ccnc(-c4cc(F)ccc4F)c3)c2)cn1` [Compound 28, (3-{4-[2′-(2,5-Difluoro-phenyl)-[3,4′]bipyridinyl-5-yl]-pyrazol-1-yl}-propyl)-dimethyl-amine], the IC50 was less than 1 µM.

Turning to `Fc1ccccc1-c1cc(-c2cncc(-n3cccn3)c2)ccn1` [Compound 41, 2′-(2-Fluoro-phenyl)-5-pyrazol-1-yl-[3,4′]bipyridinyl], the IC50 is less than 1 µM.

As for `OCCn1cc(-c2cncc(-c3ccnc(-c4cc(C(F)(F)F)ccc4F)c3)c2)cn1` [Compound 31, 2-{4-[2′-(2-Fluoro-5-trifluoromethyl-phenyl)-[3,4′]bipyridinyl-5-yl]-pyrazol-1-yl}-ethanol], the IC50 is less than 1 µM.

Turning to `OCCn1cc(-c2cncc(-c3ccnc(-c4cc(F)ccc4F)c3)c2)cn1` [Compound 32, 2-{4-[2′-(2,5-Difluoro-phenyl)-[3,4′]bipyridinyl-5-yl]-pyrazol-1-yl}-ethanol], the IC50 was less than 1 µM.

In the case of `CN1CCC(n2cc(-c3cncc(-c4ccnc(-c5cc(F)ccc5F)c4)c3)cn2)CC1` [Compound 35, 2′-(2,5-Difluoro-phenyl)-5-[1-(1-methyl-piperidin-4-yl)-1H-pyrazol-4-yl]-[3,4′]bipyridinyl], the IC50 is less than 1 µM.

`CN(C)CCCn1cc(-c2cncc(-c3ccnc(-c4cc(Cl)ccc4F)c3)c2)cn1` [Compound 30, (3-{4-[2′-(5-Chloro-2-fluoro-phenyl)-[3,4′]bipyridinyl-5-yl]-pyrazol-1-yl}-propyl)-dimethyl-amine]: the IC50 is less than 1 µM.

Regarding `Fc1ccccc1-c1cc(-c2cncc(-c3cnc4[nH]c(C(F)(F)F)cc4c3)c2)ccn1` [Compound 42, 2′-(2-Fluoro-phenyl)-5-(2-trifluoromethyl-1H-pyrrolo[2,3-b]pyridin-5-yl)-[3,4′]bipyridinyl], the IC50 was in the range of 1 to 10 µM.

`CN1CCN(CCCn2cc(-c3cncc(-c4ccnc(-c5ccccc5F)c4)c3)cn2)CC1` [Compound 23, 2′-(2-Fluoro-phenyl)-5-{1-[3-(4-methyl-piperazin-1-yl)-propyl]-1H-pyrazol-4-yl}-[3,4′]bipyridinyl]: the IC50 is less than 1 µM.

In the case of `CN1CCC(n2cc(-c3cncc(-c4ccnc(-c5cc(C(F)(F)F)ccc5F)c4)c3)cn2)CC1` [Compound 36, 2′-(2-Fluoro-5-trifluoromethyl-phenyl)-5-[1-(1-methyl-piperidin-4-yl)-1H-pyrazol-4-yl]-[3,4′]bipyridinyl], the IC50 was less than 1 µM.

Turning to `COc1ccc(Nc2cncc(-c3ccnc(-c4ccccc4F)c3)c2)cn1` [Compound 44, [2′-(2-Fluoro-phenyl)-[3,4′]bipyridinyl-5-yl]-(6-methoxy-pyridin-3-yl)-amine], the IC50 lay within 1 to 10 µM.

Regarding `OCCn1cc(-c2cncc(-c3ccnc(-c4ccccc4F)c3)n2)cn1` [Compound 20, 2-(4-{6-[2-(2-Fluoro-phenyl)-pyridin-4-yl]-pyrazin-2-yl}-pyrazol-1-yl)-ethanol], the IC50 is less than 1 µM.

For `CN1CCC(n2cc(-c3cncc(-c4ccnc(-c5ccccc5F)c4)c3)cn2)CC1` [Compound 24, 2′-(2-Fluoro-phenyl)-5-[1-(1-methyl-piperidin-4-yl)-1H-pyrazol-4-yl]-[3,4′]bipyridinyl], the IC50 was less than 1 µM.

Turning to `Fc1ccccc1-c1cc(-c2cncc(-c3ccc(N4CCNCC4)nc3)c2)ccn1` [Compound 26, 2″-(2-Fluoro-phenyl)-6-piperazin-1-yl-[3,3′;5′,4″]terpyridine], the IC50 is less than 1 µM.

Regarding `CN1CCC(n2cc(-c3cncc(-c4ccnc(-c5cc(Cl)ccc5F)c4)c3)cn2)CC1` [Compound 37, 2′-(5-Chloro-2-fluoro-phenyl)-5-[1-(1-methyl-piperidin-4-yl)-1H-pyrazol-4-yl]-[3,4′]bipyridinyl], the IC50 is less than 1 µM.

Regarding `OCCn1cc(-c2cncc(-c3ccnc(-c4cc(Cl)ccc4F)c3)c2)cn1` [Compound 34, 2-{4-[2′-(5-Chloro-2-fluoro-phenyl)-[3,4′]bipyridinyl-5-yl]-pyrazol-1-yl}-ethanol], the IC50 is less than 1 µM.

As for `CN(C)CCCn1cc(-c2cncc(-c3ccnc(-c4ccccc4F)c3)c2)cn1` [Compound 29, (3-{4-[2′-(2-Fluoro-phenyl)-[3,4′]bipyridinyl-5-yl]-pyrazol-1-yl}-propyl)-dimethyl-amine], the IC50 was less than 1 µM.

For the compound `CCOc1cc(Nc2cncc(-c3ccnc(-c4ccccc4F)c3)c2)ccn1` [Compound 43, (2-Ethoxy-pyridin-4-yl)-[2′-(2-fluoro-phenyl)-[3,4′]bipyridinyl-5-yl]-amine], the IC50 lay in the range of 1 to 10 µM.

For the compound `OCCn1cc(-c2cncc(-c3ccnc(-c4ccccc4F)c3)c2)cn1` [Compound 33, 2-{4-[2′-(2-Fluoro-phenyl)-[3,4′]bipyridinyl-5-yl]-pyrazol-1-yl}-ethanol], the IC50 was less than 1 µM.

Regarding `Fc1ccccc1-c1cc(-c2cncc(-c3cnc4ccccc4c3)c2)ccn1` [Compound 39, 2′-(2-Fluoro-phenyl)-5-quinolin-3-yl-[3,4′]bipyridinyl], the IC50 lay in the range of 1 to 10 µM.

In the case of `Fc1ccccc1-c1cc(-c2cncc(-c3cnn(CCCN4CCOCC4)c3)c2)ccn1` [Compound 21, 2′-(2-Fluoro-phenyl)-5-[1-(3-morpholin-4-yl-propyl)-1H-pyrazol-4-yl]-[3,4′]bipyridinyl], the IC50 was less than 1 µM.

As to `OCCCn1cc(-c2cncc(-c3ccnc(-c4ccccc4F)c3)c2)cn1` [Compound 22, 3-{4-[2′-(2-Fluoro-phenyl)-[3,4′]bipyridinyl-5-yl]-pyrazol-1-yl}-propan-1-ol], the IC50 is less than 1 µM.

`Fc1ccccc1-c1cc(-c2cncc(-c3cnn(C4CCNCC4)c3)c2)ccn1` [Compound 27, 2′-(2-Fluoro-phenyl)-5-(1-piperidin-4-yl-1H-pyrazol-4-yl)-[3,4′]bipyridinyl]: the IC50 is less than 1 µM.

As to `CN1CCN(c2ccc(-c3cncc(-c4ccnc(-c5ccccc5F)c4)c3)cn2)CC1` [Compound 25, 2″-(2-Fluoro-phenyl)-6-(4-methyl-piperazin-1-yl)-[3,3′;5′,4″]terpyridine], the IC50 was less than 1 µM.
